Assay results taken from publication PMC4096627 (Bioorganic & medicinal chemistry, 2014).
Counter-ions that a name gives are not always drawn.

Tests used:
Dopamine Receptor D2 = Dopamine Receptor D2 (Homo sapiens, UniProt P14416); assay: NIMH-PDSP binding affinity at dopamine receptor subtype D2; details: for primary assay inhibition at D2: primary assay threshold
Dopamine Receptor D5 = Dopamine Receptor D5 (Homo sapiens, UniProt P21918); assay: NIMH-PDSP binding affinity at dopamine receptor subtype D5; details: for primary assay inhibition at D5: primary assay threshold
Dopamine Receptor D4 [1] = molecular target: T1, Dopamine Receptor D4 (Homo sapiens, UniProt P21917); assay: NIMH-PDSP binding affinity at dopamine receptor subtype D4; details: for D2/D4: ratio of Ki D2 to Ki D4
T1 sequence (P21917 1-419): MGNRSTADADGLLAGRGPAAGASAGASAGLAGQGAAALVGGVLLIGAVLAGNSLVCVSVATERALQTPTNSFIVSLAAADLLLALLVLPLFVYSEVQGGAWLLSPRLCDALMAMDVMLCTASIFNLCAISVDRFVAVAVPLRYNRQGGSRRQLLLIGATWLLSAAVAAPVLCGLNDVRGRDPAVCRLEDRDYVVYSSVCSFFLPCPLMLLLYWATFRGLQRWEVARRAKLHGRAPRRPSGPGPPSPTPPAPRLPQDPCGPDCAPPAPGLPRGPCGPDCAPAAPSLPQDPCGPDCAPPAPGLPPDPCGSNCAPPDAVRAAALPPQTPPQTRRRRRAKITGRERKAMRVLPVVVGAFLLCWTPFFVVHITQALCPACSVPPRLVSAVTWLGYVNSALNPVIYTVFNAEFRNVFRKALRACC

Dopamine Receptor D1 = Dopamine Receptor D1 (Homo sapiens, UniProt P21728); assay: NIMH-PDSP binding affinity at dopamine receptor subtype D1; details: for primary assay inhibition at D1: primary assay threshold
Dopamine Receptor D3 = Dopamine Receptor D3 (Homo sapiens, UniProt P35462); assay: NIMH-PDSP binding affinity at dopamine receptor subtype D3
Dopamine Receptor D4 [2] = molecular target: T1, Dopamine Receptor D4; details: compounds 1-7, D2-like data; ref Previous publications from our lab; cited from earlier work

Dopamine Receptor D1, sequence (P21728 whole entry): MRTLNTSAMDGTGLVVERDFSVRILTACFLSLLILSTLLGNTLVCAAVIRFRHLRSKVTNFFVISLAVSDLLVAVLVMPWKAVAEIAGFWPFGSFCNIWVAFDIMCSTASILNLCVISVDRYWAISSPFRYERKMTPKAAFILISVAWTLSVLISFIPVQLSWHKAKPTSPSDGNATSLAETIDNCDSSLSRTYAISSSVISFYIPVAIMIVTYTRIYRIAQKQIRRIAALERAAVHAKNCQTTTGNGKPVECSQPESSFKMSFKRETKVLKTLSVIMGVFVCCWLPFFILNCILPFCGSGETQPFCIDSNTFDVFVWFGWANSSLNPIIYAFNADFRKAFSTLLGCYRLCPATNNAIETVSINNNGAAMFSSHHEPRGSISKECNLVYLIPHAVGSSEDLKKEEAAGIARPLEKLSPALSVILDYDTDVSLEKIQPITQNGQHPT
Dopamine Receptor D2, sequence (P14416 whole entry): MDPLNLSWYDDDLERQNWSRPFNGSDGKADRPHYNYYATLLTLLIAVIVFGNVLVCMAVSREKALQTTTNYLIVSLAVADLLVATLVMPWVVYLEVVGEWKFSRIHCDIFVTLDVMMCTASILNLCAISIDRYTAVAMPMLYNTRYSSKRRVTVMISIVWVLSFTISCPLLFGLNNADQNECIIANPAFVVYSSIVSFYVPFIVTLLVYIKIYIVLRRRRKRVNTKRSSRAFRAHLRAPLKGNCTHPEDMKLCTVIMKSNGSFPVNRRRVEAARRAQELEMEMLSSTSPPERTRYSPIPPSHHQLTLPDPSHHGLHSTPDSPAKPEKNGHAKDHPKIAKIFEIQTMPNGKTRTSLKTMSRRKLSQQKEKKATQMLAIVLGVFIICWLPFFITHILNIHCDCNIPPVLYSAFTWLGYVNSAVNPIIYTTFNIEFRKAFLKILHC
Dopamine Receptor D5, sequence (P21918 whole entry): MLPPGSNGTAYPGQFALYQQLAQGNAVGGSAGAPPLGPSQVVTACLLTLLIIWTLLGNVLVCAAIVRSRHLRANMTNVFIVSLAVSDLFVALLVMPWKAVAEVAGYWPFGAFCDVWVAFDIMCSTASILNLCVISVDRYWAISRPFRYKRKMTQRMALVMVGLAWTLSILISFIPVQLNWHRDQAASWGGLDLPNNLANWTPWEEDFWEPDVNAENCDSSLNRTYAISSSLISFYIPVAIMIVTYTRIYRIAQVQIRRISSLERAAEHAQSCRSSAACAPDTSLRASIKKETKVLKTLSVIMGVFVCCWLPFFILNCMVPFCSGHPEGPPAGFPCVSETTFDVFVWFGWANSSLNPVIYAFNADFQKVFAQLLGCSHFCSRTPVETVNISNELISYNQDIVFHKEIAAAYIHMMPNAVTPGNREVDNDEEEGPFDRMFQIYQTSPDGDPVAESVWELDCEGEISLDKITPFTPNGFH
Dopamine Receptor D3, sequence (P35462 whole entry): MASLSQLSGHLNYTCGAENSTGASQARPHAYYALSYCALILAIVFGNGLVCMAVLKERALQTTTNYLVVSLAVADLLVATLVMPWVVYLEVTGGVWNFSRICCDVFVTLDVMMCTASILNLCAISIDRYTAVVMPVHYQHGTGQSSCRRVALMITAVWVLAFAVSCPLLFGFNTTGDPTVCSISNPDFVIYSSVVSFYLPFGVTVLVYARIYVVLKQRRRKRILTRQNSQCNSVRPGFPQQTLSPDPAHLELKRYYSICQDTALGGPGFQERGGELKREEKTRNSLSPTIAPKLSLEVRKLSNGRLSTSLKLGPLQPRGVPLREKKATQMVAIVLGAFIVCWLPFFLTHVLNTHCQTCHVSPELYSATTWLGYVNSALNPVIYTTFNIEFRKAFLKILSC

| D2/D4 (Dopamine Receptor D4 [1]) | Structure (SMILES) | primary assay inhibition at D5 (Dopamine Receptor D5) | primary assay inhibition at D1 (Dopamine Receptor D1) | other results |
| --- | --- | --- | --- | --- |
| – | Clc1ccc(N2CCN(CCc3cc4ccccc4o3)CC2)cc1 [Compound 23, 1-(2-(Benzofuran-2-yl)ethyl)-4-(4-chlorophenyl)piperazine] | MT (Missed primary assay threshold of 50% inhibition) | MT (Missed primary assay threshold of 50% inhibition) | primary assay inhibition at D2 (Dopamine Receptor D2): MT (Missed primary assay threshold of 50% inhibition); primary assay inhibition at D3 (Dopamine Receptor D3; primary assay threshold): MT (Missed primary assay threshold of 50% inhibition) |
| – | O=C1c2ccc(F)cc2CC1CCN1CCN(c2ccc(Cl)cc2)CC1 (centres unmarked) [Compound 8, 2-(2-(4-(4-Chlorophenyl)piperazin-1-yl)ethyl)-5-fluoro-indan-1-one hydrochloride] | MT (Missed primary assay threshold of 50% inhibition) | – | – |
| – | Clc1ccc(N2CCN(CCCc3cc4ccccc4o3)CC2)cc1 [Compound 24, 1-(3-(Benzofuran-2-yl)propyl)-4-(4-chlorophenyl)piperazine] | MT (Missed primary assay threshold of 50% inhibition) | – | – |
| – | c1cnc(N2CCN(CCCCc3nc4ccccc4s3)CC2)nc1 [Compound 27] | MT (Missed primary assay threshold of 50% inhibition) | MT (Missed primary assay threshold of 50% inhibition) | – |
| – | Fc1ccc2c(c1)CC(CCN1CCN(c3ccc(Cl)cc3)CC1)C2 (centres unmarked) [Compound 10, 1-(4-Chlorophenyl)-4-(2-(5-fluoro-2,3-dihydro-1H-inden-2-yl)ethyl)piperazine dihydrochloride] | MT (Missed primary assay threshold of 50% inhibition) | – | – |
| – | [O-][S+](CCCN1CCN(c2ccc(Cl)cc2)CC1)c1ccc(F)cc1 (centres unmarked) [Compound 2] | MT (Missed primary assay threshold of 50% inhibition) | MT (Missed primary assay threshold of 50% inhibition) | pKi ±SEM at the Dopamine Receptor Subtype D4 (Dopamine Receptor D4 [2]): 7.89±0.05 |
| >4.2- | Clc1ccc(N2CC3CC2CN3CCCc2cc3ccccc3o2)cc1 (centres unmarked) [Compound 25, 2-(3-(Benzofuran-2-yl)propyl)-5-(4-chlorophenyl)-2,5-diazabicyclo[2.2.1]heptane] | MT (Missed primary assay threshold of 50% inhibition) | MT (Missed primary assay threshold of 50% inhibition) | primary assay inhibition at D2 (Dopamine Receptor D2): MT (Missed primary assay threshold of 50% inhibition) |
| – | Clc1ccc(N2CCN(CCCOc3ccccc3)CC2)cc1 [Compound 6] | – | – | pKi ±SEM at the Dopamine Receptor Subtype D4 (Dopamine Receptor D4 [2]): 8.26±0.03 |
| 14.5 | O=C(CCCN1CCN(c2ccc(Cl)cc2)CC1)c1ccc(F)cc1 [Compound 1] | – | – | D3/D4 (Dopamine Receptor D4 [1]; ratio of Ki D3 to Ki D4): 23.1 |
| – | Cc1ccc(N2CCN(CCCOc3ccc(F)cc3)CC2)nc1 [Compound 15a, 1-(3-(4-Fluorophenoxy)propyl)-4-(5-methylpyridin-2-yl)piperazine] | – | – | Ki (Dopamine Receptor D4 [1]; pKi ±SEM at the Dopamine Receptor Subtype D4): 1.1 nM |
| – | Fc1ccc(OCCCN2CCN(c3ncccn3)CC2)cc1 [Compound 16a] | MT (Missed primary assay threshold of 50% inhibition) | – | – |
| – | Cc1ccc(N2CCN(CCCSc3ccc(F)cc3)CC2)nc1 [Compound 15b, 1-(3-((4-Fluorophenyl)thio)propyl)-4-(5-methylpyridin-2-yl)piperazine] | – | – | pKi ±SEM at the Dopamine Receptor Subtype D2 (Dopamine Receptor D2): 6±0.1; pKi ±SEM at the Dopamine Receptor Subtype D5 (Dopamine Receptor D5): 5.7±0.1; pKi ±SEM at the Dopamine Receptor Subtype D3 (Dopamine Receptor D3): 6.8±0.1 |
| – | c1cnc(N2CCN(CCCc3nc4ccccc4s3)CC2)nc1 [Compound 28, 2-(3-(4-(Pyrimidin-2-yl)piperazin-1-yl)propyl)benzo[d]thiazole trihydrobromide] | MT (Missed primary assay threshold of 50% inhibition) | MT (Missed primary assay threshold of 50% inhibition) | inhibition of the appropriate radioligand at D5 (Dopamine Receptor D5; other DA subtypes): less than 50%; inhibition of the appropriate radioligand at D1 (Dopamine Receptor D1; other DA subtypes): less than 50% |
| >277 | O=C1c2ccccc2CC1CCN1CCN(c2ccc(Cl)cc2)CC1 (centres unmarked) [Compound 9, 2-{2-[4-(4-Chloro-phenyl)-piperazin-1-yl]-ethyl}-indan-1-one tosylate] | MT (Missed primary assay threshold of 50% inhibition) | – | – |

| Structure (SMILES) | D2/D4 (Dopamine Receptor D4 [1]) | primary assay inhibition at D5 (Dopamine Receptor D5) | primary assay inhibition at D1 (Dopamine Receptor D1) | other results |
| --- | --- | --- | --- | --- |
| Clc1ccc(N2CCN(CCc3nc4ccccc4o3)CC2)cc1 [Compound 22, 2-(2-(4-(4-Chlorophenyl)piperazin-1-yl)ethyl)benzo[d]oxazole] | >7.1 | MT (Missed primary assay threshold of 50% inhibition) | MT (Missed primary assay threshold of 50% inhibition) | primary assay inhibition at D2 (Dopamine Receptor D2): MT (Missed primary assay threshold of 50% inhibition) |
| Clc1ccc(N2CCN(CCCCc3nc4ccccc4o3)CC2)cc1 [Compound 20, 2-(4-(4-(4-Chlorophenyl)piperazin-1-yl)butyl)benzo[d]oxazole] | >327 | MT (Missed primary assay threshold of 50% inhibition) | MT (Missed primary assay threshold of 50% inhibition) | primary assay inhibition at D2 (Dopamine Receptor D2): MT (Missed primary assay threshold of 50% inhibition) |
